How the values were obtained:
human plasma kallikrein = molecular target: T1, human plasma kallikrein (Homo sapiens, UniProt P03952); assay: Determination of the plasma kallikrein activity (fluorogenic peptide substrate, AMC cleavage); format: biochemical; details: plasma kallikrein from Kordia 0.6 nM; substrate H-Pro-Phe-Arg-AMC 10 μM; 30 min at 22° C.; in some cases averages from multiple determinations
T1 construct: purchased Kordia
Procedure: (§1) To determine the plasma kallikrein inhibition of the substances according to the invention, a biochemical test system is used which utilizes the reaction of a peptidic plasma kallikrein substrate to determine the enzymatic activity of human plasma kallikrein. Here, plasma kallikrein cleaves from the peptic plasma kallikrein substrate the C-terminal aminomethylcoumarin (AMC), the fluorescence of which is measured. The determinations are conducted in microtitre plates.
Test substances are dissolved in dimethyl sulfoxide and serially diluted in dimethyl sulfoxide (3000 μM to 0.0078 μM; resulting final concentrations in the test: 50 μM to 0.00013 μM). 1 μl of the diluted substance solutions is placed into each of the wells of white microtitre plates from Greiner (384 wells). 20 μl of assay buffer (50 mM Tris/HCl pH 7.4; 100 mM sodium chloride solution; 5 mM calcium chloride solution; 0.1% of bovine serum albumin) and 20 μl of plasma kallikrein from Kordia (0.6 nM in assay buffer) are then added successively. After 15 min of incubation, the enzyme reaction is started by addition of 20 μl of the substrate H-Pro-Phe-Arg-AMC dissolved in assay buffer (10 μM in assay buffer) from Bachem, the mixture is incubated at room temperature (22° C.) for 30 min and fluorescence is then measured (excitation: 360 nm, emission: 460 nm). The measured emissions of the test batches with test substance are compared to those of control batches without test substance (only dimethyl sulfoxide instead of test substance in dimethyl sulfoxide), and IC50 values are calculated from the concentration/activity relationships. Activity data from this test are given in Table B below (in some cases as averages from multiple individual determinations): […]

human factor XIa = molecular target: T2, human factor XIa (Homo sapiens, UniProt P03951); assay: Measurement of FXIa inhibition (fluorogenic peptide substrate, AMC cleavage); format: biochemical; details: factor XIa from Kordia 0.45 nM; substrate Boc-Glu(OBzl)-Ala-Arg-AMC 10 μM; 30 min at 22° C.; in some cases averages from multiple determinations
T2 construct: purchased Kordia
Procedure: as §1, with “The factor XIa” for “To determine the plasma kallikrein”, “invention is determined using” for “invention,”, “system” for “system is used”, “factor XIa” for “plasma kallikrein”, “factor XIa.” for “plasma kallikrein.”
Test substances are dissolved in dimethyl sulfoxide and serially diluted in dimethyl sulfoxide (3000 μM to 0.0078 μM; resulting final concentrations in the test: 50 μM to 0.00013 μM). 1 μl of the diluted substance solutions is placed into each of the wells of white microtitre plates from Greiner (384 wells). 20 μl of assay buffer (50 mM of Tris/HCl pH 7.4; 100 mM of sodium chloride; 5 mM of calcium chloride; 0.1% of bovine serum albumin) and 20 μl of factor XIa from Kordia (0.45 nM in assay buffer) are then added successively. After 15 min of incubation, the enzyme reaction is started by addition of 20 μl of the factor XIa substrate Boc-Glu(OBzl)-Ala-Arg-AMC dissolved in assay buffer (10 μM in assay buffer) from Bachem, the mixture is incubated at room temperature (22° C.) for 30 min and fluorescence is then measured (excitation: 360 nm, emission: 460 nm). The measured emissions of the test batches with test substance are compared to those of control batches without test substance (only dimethyl sulfoxide instead of test substance in dimethyl sulfoxide), and IC50 values are calculated from the concentration/activity relationships. Activity data from this test are given in Table A below (in some cases as averages from multiple individual determinations): […]

T2 sequence (P03951 388-625 limits assumed): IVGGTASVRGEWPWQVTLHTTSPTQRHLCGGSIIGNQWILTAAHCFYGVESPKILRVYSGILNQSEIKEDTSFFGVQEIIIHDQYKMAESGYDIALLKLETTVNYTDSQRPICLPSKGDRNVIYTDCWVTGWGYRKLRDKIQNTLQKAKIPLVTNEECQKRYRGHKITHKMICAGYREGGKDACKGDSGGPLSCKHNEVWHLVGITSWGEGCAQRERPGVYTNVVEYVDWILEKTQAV
T2 sequence (P03951 19-387 partner limits assumed): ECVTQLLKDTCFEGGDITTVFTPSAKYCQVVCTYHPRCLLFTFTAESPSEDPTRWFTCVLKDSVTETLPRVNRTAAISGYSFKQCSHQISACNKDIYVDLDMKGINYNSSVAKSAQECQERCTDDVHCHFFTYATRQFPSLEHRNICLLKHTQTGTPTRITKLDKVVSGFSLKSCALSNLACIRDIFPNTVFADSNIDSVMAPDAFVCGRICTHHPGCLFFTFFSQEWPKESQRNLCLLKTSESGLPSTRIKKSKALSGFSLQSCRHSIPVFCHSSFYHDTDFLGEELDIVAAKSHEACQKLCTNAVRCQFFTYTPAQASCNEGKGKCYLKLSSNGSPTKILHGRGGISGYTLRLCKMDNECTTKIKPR
T1 sequence (P03952 391-638 limits assumed): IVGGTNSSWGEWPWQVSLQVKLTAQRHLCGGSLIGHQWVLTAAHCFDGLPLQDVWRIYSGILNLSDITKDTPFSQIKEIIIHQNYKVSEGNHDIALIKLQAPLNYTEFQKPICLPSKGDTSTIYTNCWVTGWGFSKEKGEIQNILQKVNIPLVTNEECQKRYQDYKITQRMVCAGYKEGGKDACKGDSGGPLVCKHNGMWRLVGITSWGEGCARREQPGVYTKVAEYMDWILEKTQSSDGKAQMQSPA
T1 sequence (P03952 20-390 partner limits assumed): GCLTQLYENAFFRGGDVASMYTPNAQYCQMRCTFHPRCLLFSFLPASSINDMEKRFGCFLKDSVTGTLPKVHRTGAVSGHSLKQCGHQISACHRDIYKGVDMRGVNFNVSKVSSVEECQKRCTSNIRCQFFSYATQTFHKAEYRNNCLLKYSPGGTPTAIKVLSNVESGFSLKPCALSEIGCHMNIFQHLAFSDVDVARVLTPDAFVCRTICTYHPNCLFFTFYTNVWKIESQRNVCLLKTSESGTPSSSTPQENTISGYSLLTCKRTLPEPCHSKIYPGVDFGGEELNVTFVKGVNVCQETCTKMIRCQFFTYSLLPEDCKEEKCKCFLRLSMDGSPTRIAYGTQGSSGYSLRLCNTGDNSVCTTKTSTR

| IC50 (human plasma kallikrein) | IC50 (human factor XIa) | SMILES |
| --- | --- | --- |
| 0.13 µM | 0.036 µM | COc1cn(C(CC2=NOCCC2)C(=O)Nc2ccc3nn(C)cc3c2)c(=O)cc1-c1cc(Cl)ccc1OCC(F)(F)F (racemic) [Example 24, 2-{4-[5-Chloro-2-(2,2,2-trifluoroethoxy)phenyl]-5-methoxy-2-oxopyridin-1(2H)-yl}-3-(5,6-dihydro-4H-1,2-oxazin-3-yl)-N-(2-methyl-2H-indazol-5-yl)propanamide] |
| 0.014 µM | 0.0013 µM | COc1cn(C(Cc2ccn(C)n2)C(=O)Nc2ccc(C(=O)O)cc2)c(=O)cc1-c1cc(Cl)ccc1OCC(F)(F)F (racemic) [Example 13, 4-{[2-{4-[5-Chloro-2-(2,2,2-trifluoroethoxy)phenyl]-5-methoxy-2-oxopyridin-1(2H)-yl}-3-(1-methyl-1H-pyrazol-3-yl)propanoyl]amino}benzoic acid] |
| 0.32 µM | 0.003 µM | COc1cn(C(CC2COCCO2)C(=O)Nc2ccc(C(=O)O)cc2)c(=O)cc1-c1cc(Cl)ccc1OCCF (centres unmarked) [Example 44, 4-{[2-{4-[5-Chloro-2-(2-fluoroethoxy)phenyl]-5-methoxy-2-oxopyridin-1(2H)-yl}-3-(1,4-dioxan-2-yl)propanoyl]amino}benzoic acid] |
| 0.14 µM | 0.04 µM | CCCC(C(=O)Nc1ccc2nn(C)cc2c1)n1cc(OC)c(-c2cc(Cl)ccc2OCC(F)(F)F)cc1=O (racemic) [Example 65, 2-{4-[5-Chloro-2-(2,2,2-trifluoroethoxy)phenyl]-5-methoxy-2-oxopyridin-1(2H)-yl}-N-(2-methyl-2H-indazol-5-yl)pentanamide] |
| 0.23 µM | 0.019 µM | COc1cn(C(C[C@H](C)OC)C(=O)Nc2ccc(C(N)=O)c(F)c2)c(=O)cc1-c1cc(Cl)ccc1OCC(F)(F)F (mixture of isomers) [Example 40, 4-{[(4S)-2-{4-[5-Chloro-2-(2,2,2-trifluoroethoxy)phenyl]-5-methoxy-2-oxopyridin-1(2H)-yl}-4-methoxypentanoyl]amino}-2-fluorobenzamide] |
| 0.16 µM | 0.0097 µM | COc1cn(C(CC2COCCO2)C(=O)Nc2ccc(C(N)=O)c(F)c2)c(=O)cc1-c1cc(Cl)ccc1OCC(F)F (centres unmarked) [Example 32, 4-{[2-{4-[5-Chloro-2-(2,2-difluoroethoxy)phenyl]-5-methoxy-2-oxopyridin-1(2H)-yl}-3-(1,4-dioxan-2-yl)propanoyl]amino}-2-fluorobenzamide] |
| 0.082 µM | 0.0051 µM | CNC(=O)c1ccc(NC(=O)C(C[C@@H]2CCCCO2)n2cc(OC)c(-c3cc(Cl)ccc3OCC(F)(F)F)cc2=O)cn1 (stereo partly drawn) [Example 52, 5-[(2-{4-[5-Chloro-2-(2,2,2-trifluoroethoxy)phenyl]-5-methoxy-2-oxopyridin-1(2H)-yl}-3-[(2S)-tetrahydro-2H-pyran-2-yl]propanoyl)amino]-N-methylpyridine-2-carboxamide] |
| 0.014 µM | 0.0013 µM | CNC(=O)c1ccc(NC(=O)C(CC2COCCO2)n2cc(OC)c(-c3cc(Cl)ccc3OCC(F)(F)F)cc2=O)cn1 (single isomer, unassigned) [Example 63, 5-{[2-{4-[5-Chloro-2-(2,2,2-trifluoroethoxy)phenyl]-5-methoxy-2-oxopyridin-1(2H)-yl}-3-(1,4-dioxan-2-yl)propanoyl]amino}-N-methylpyridine-2-carboxamide] |
| 0.07 µM | 0.0062 µM | CNC(=O)c1ccc(NC(=O)C(C[C@H](C)OC)n2cc(OC)c(-c3cc(Cl)ccc3OCC(F)(F)F)cc2=O)cn1 (mixture of isomers) [Example 36, 5-{[(4S)-2-{4-[5-Chloro-2-(2,2,2-trifluoroethoxy)phenyl]-5-methoxy-2-oxopyridin-1(2H)-yl}-4-methoxypentanoyl]amino}-N-methylpyridine-2-carboxamide] |
| 0.12 µM | 0.0025 µM | COc1cn(C(C[C@H]2CCCCO2)C(=O)Nc2ccc(C(=O)O)cc2)c(=O)cc1-c1cc(Cl)ccc1OCC(F)(F)F (stereo partly drawn) [Example 20, 4-[(2-{4-[5-Chloro-2-(2,2,2-trifluoroethoxy)phenyl]-5-methoxy-2-oxopyridin-1(2H)-yl}-3-[(2R)-tetrahydro-2H-pyran-2-yl]propanoyl)amino]benzoic acid] |
| 0.31 µM | 0.029 µM | COc1cn(C(CC2COCCO2)C(=O)Nc2ccc(C(N)=O)c(F)c2)c(=O)cc1-c1cc(Cl)ccc1OCCF (centres unmarked) [Example 47, 4-{[2-{4-[5-Chloro-2-(2-fluoroethoxy)phenyl]-5-methoxy-2-oxopyridin-1(2H)-yl}-3-(1,4-dioxan-2-yl)propanoyl]amino}-2-fluorobenzamide] |
| 0.056 µM | 0.016 µM | COc1cn(C(CCOC(C)C)C(=O)Nc2ccc3nn(C)cc3c2)c(=O)cc1-c1cc(Cl)ccc1OCC(F)(F)F (racemic) [Example 39, 2-{4-[5-Chloro-2-(2,2,2-trifluoroethoxy)phenyl]-5-methoxy-2-oxopyridin-1(2H)-yl}-4-isopropoxy-N-(2-methyl-2H-indazol-5-yl)butanamide] |
| 0.17 µM | 0.018 µM | CNC(=O)c1ccc(NC(=O)C(C[C@H]2CCCCO2)n2cc(OC)c(-c3cc(Cl)ccc3OCC(F)(F)F)cc2=O)cn1 (stereo partly drawn) [Example 22, 5-[(2-{4-[5-Chloro-2-(2,2,2-trifluoroethoxy)phenyl]-5-methoxy-2-oxopyridin-1(2H)-yl}-3-[(2R)-tetrahydro-2H-pyran-2-yl]propanoyl)amino]-N-methylpyridine-2-carboxamide] |

| SMILES | IC50 (human plasma kallikrein) | IC50 (human factor XIa) |
| --- | --- | --- |
| COc1cn(C(CCOC(C)(C)C)C(=O)Nc2ccc3nc(C(=O)O)cn3c2)c(=O)cc1-c1cc(Cl)ccc1OCC(F)(F)F (racemic) [Example 73, 6-{[4-tert-Butoxy-2-{4-[5-chloro-2-(2,2,2-trifluoroethoxy)phenyl]-5-methoxy-2-oxopyridin-1(2H)-yl}butanoyl]amino}imidazo[1,2-a]pyridine-2-carboxylic acid] | 0.018 µM | 0.002 µM |
| COc1cc(NC(=O)C(CCOC(C)(C)C)n2cc(OC)c(-c3cc(Cl)ccc3OCC(F)(F)F)cc2=O)ccc1C(=O)O (racemic) [Example 74, 4-{[4-tert-Butoxy-2-{4-[5-chloro-2-(2,2,2-trifluoroethoxy)phenyl]-5-methoxy-2-oxopyridin-1(2H)-yl}butanoyl]amino}-2-methoxybenzoic acid] | 0.21 µM | 0.0069 µM |
| COc1cn(C(CCOC(C)(C)C)C(=O)Nc2ccc(C(N)=O)nc2)c(=O)cc1-c1cc(Cl)ccc1OCC(F)F (racemic) [Example 27, 5-[(4-tert-Butoxy-2-{4-[5-chloro-2-(2,2-difluoroethoxy)phenyl]-5-methoxy-2-oxopyridin-1(2H)-yl}butanoyl)amino]pyridine-2-carboxamide] | 0.095 µM | 0.018 µM |
| COc1cn(C(CCOC2(C)CCC2)C(=O)Nc2ccc(C(N)=O)nc2)c(=O)cc1-c1cc(Cl)ccc1OCC(F)(F)F (racemic) [Example 60, 5-[[2-[4-[5-Chloro-2-(2,2,2-trifluoroethoxy)phenyl]-5-methoxy-2-oxo-1-pyridyl]-4-(1-methylcyclobutoxy)butanoyl]amino]pyridine-2-carboxamide] | 0.084 µM | 0.017 µM |
| COc1cn(C(CCOC(C)(C)C)C(=O)Nc2ccc3nn(C)cc3c2)c(=O)cc1-c1cc(Cl)ccc1OCC(F)(F)F (racemic) [Example 9, 4-tert-Butoxy-2-{4-[5-chloro-2-(2,2,2-trifluoroethoxy)phenyl]-5-methoxy-2-oxopyridin-1(2H)-yl}-N-(2-methyl-2H-indazol-5-yl)butanamide] | 0.057 µM | 0.014 µM |
| CCNC(=O)c1ccc(NC(=O)C(CCOC2(C)CCC2)n2cc(OC)c(-c3cc(Cl)ccc3OCC(F)(F)F)cc2=O)cn1 (racemic) [Example 61, 5-[[2-[4-[5-Chloro-2-(2,2,2-trifluoroethoxy)phenyl]-5-methoxy-2-oxo-1-pyridyl]-4-(1-methylcyclobutoxy)butanoyl]amino]-N-ethylpyridine-2-carboxamide] | 0.15 µM | 0.043 µM |

From patent US20180250280A1 (BAYER PHARMA AKTIENGESELLSCHAFT, priority 2015, published 2018)
